Measurements taken from patent publication US20080085861A1, “GAS1 POLYPEPTIDES” (priority 1999, published 2008).
“Also recorded” adds a separate entry of the source.

How the values were obtained:
[1] = tested on: Gas1 expression; assay: Gas1 expression in brain after intraperitoneal kainic acid (Northern blot); format: in vivo, rat; settings: 10 mg/kg intraperitoneal; hippocampus and olfactory cortex
Protocol: Already detectable induced Gas1 mRNA levels after kainic acid appear 6 hours after the beginning of treatment and were maintained for at least 10 days. In order to reveal Gas1 induction and to confirm neurone localization thereof in situ hybridization after administering kainic acid was performed. […] Similar results were observed after provoking an experimental ischemic process in gerbil brain by transient occlusion of both carotids, giving rise to rapid degeneration of a numerous population of pyramidal neurons of the CA1 layer of the hippocampus. It was observed that this massive neuron death was preceded by a significant rise of Gas1 mRNA and Gas1 protein levels (evaluated by immunocytochemistry) in those neurons. Likewise, it was also observed that neuron loss in all the cerebral cortex that is produced in rats in the perinatal period after exposure to ionizing radiation is preceded by high induction of Gas1 mRNA.

[2] = tested on: human neuroblastoma NB69 cells; assay: Staurosporine-induced neuronal death in NB69 cells, viable cell count; format: cell-based; settings: 200 nM staurosporine, viability 24 hr after exposure; 25 μM Ag1 in NB69 wt, or stable expression in NB69-Gas1 cells
Protocol: Columns 1 and 2. […] Columns 3 and 4. The viability was analyzed 24 hr after exposure to staurosporine (200 nM) in all the cases. Results are expressed as mean +/−SEM. Statistical analysis was performed by Student's t-test. *** denotes […], and other treatment groups were statistically non-significant (p<0.5).
Staurosporine-induced neuronal death was assayed in human neuroblastoma NB69 cells cultured in DMEM/HAM F12 medium supplemented with 10% fetal calf serum, 2 mM glutamine and 50 μg/ml gentamycin. Wild-type or stably transfected NB69 cells (2×10^4 cells/35 mm dish) were exposed to […] staurosporine (RBI). Phase-bright cells without signs of membrane or neurite degeneration were counted 24 hr later. Experiments were done in triplicate and repeated as least five times. Stably transfected NB69 cells that overexpress Gas1 in the […] orientation (NB69-Gas1) were prepared by the calcium phosphate precipitation method followed by two weeks of geneticin selection. Control cells were prepared in parallel by transfection with pCDNA3 vector alone (NB69-vector). Expression of the constructs in the cell clones were analyzed by northern blot analysis, and the clones having the highest expression were chosen for the experiments. Stable tranfectants were kept in the presence of 0.3 mg/ml of geneticin, which was removed before plating for the experiments.

[3] = tested on: cortico-hippocampal cultures; assay: NMDA-induced neuronal death (excitotoxicity) in cortico-hippocampal cultures, viability by vital staining; format: cell-based, rat; design: survival: dose or concentration left out as unconfirmed
Protocol: The viability of mature cortico-hippocampal cultures was analyzed 24 hr after […] NMDA exposure. Pretreatment with the different antisense oligonucleotides at the indicated concentrations was done 24 hr before the exposure to NMDA. Results are expressed as mean +/−SEM. Statistical analysis was performed by Student's t-test. *** denotes […], and other treatment groups were statistically non-significant (p<0.5).
NMDA-induced excitotoxicity was analyzed in cortico-hippocampal cultures maintained for 12-14 DIV similar to those already described in Example 1. To apply the excitotoxic insult, the cultures were rinsed twice with Locke's solution without Mg2+ and exposed to […] NMDA (Sigma) for 5 min. in the same Locke's solution or to Locke's solution alone as control. NMDA was washed out, the Mg2+ concentration was restored by 2 changes of Locke's +Mg2+ solution, and the original medium was replaced. Phase-bright bipolar cells, taken to represent living neurons, were counted 24 hr after the NMDA exposure. Alternatively, the vital staining method (Jones and Senft, 1985 An improved method to determine cell viability by simultaneous staining with fluorescein diacetate-propidium iodide. J Histochem Cytochem 33:77-79) was used to assess the extent of neuronal death and the protection by antisense oligonucleotide treatments. Similar results were obtained using either method. […]

[4] = Channel formation of purified Gas1 protein in artificial bilayers; format: biochemical; settings: purified protein expressed in bacteria (pTrcHis)
From the text: Initially, Gas1 expression has been related to the G0 phase of cell cycle arrest in rat fibroblasts deprived of serum (Del Sal et al., 1992). […] Up to now it had been described that Gas1 protein was a cell membrane protein and as of its amino acid sequence the presence of two transmembrane segments had been proposed and a hypothetical RGD domain that may interact with integrin, the only domain described that relates its structure to its arrest function of the cell cycle (Schneider et al.). The present inventors have succeeded in overexpressing the Gas1 protein by means of a prokaryotic vector (pTrcHis) in bacteria for subsequent purification in sufficient amounts to carry out protein studies. […] Aside from the already described location of this protein in the cell membrane we have located the presence of Gas1 in the perinuclear and mitochondrial membrane. It must be pointed out that Bcl-2 and Bax, proteins related to the […], are also located in the mitochondrial membrane and are capable of forming ionic channels. This common location of these proteins makes compatible a possible functional interaction of Gas1 with Bax type proapoptotic proteins and Bcl-2 and Bcl XL antiapoptotic proteins.

Molecule: C=C(C)[C@H]1CN[C@H](C(=O)O)[C@H]1CC(=O)O [kainic acid]
- induction of Gas1 expression [1]: strong induction

Molecule: 5′-TCCTCATCCATCCAT-3′ (DNA, linkages s2 o10 s2 (s phosphorothioate, o phosphodiester), methylation of C not given here) [AG1, 15-mer Gas1 antisense oligonucleotide spanning the start site of translation, protected at each end by two phosphorothioate groups]
- effect on staurosporine-induced reduction in survival [2]: prevents the reduction in survival; also recorded: total blocking
- effect on NMDA-induced neuronal death ([3]; 25 μM Ag1, pretreatment 24 hr before 500 mM NMDA, viability 24 hr after exposure): blocks NMDA-induced neuronal death
- survival ([3]; NMDA induced neuron death in primary neuron cultures, FIG. 2a): ~100%

B1: Gas1 protein: purified Gas1 protein overexpressed by a prokaryotic vector (pTrcHis) in bacteria (protein)
chain: LAHGRRLICWQALLQCQGEPECSYAYNQYAEACAPVLAQHGGGDAPGAAAAAFPASAASFSSRWRCPSHCISALIQLNHTRRGPALEDCDCAQDENCKSTKRAIEPCLPRTSGGGAGGPGAGGVMGCTEARRRCDRDSRCNLALSRYLTYCGKVFNGLRCTDECRTVIEDMLAMPKAALLNDCVCDGLERPICESVKENMARLCFGAELGNGPGSSGSDGGLDDYYDEDYDDEQRTGGAGGEQPLDDDDGVPHPPRPGSGAAASGGRGDLPYGPGRRS
- channel formation [4]: capable of inserting in and forming cationic channels
